Peptide text beside a SMILES is read from it.
Tested on: SD rats
Assay: Hematology and coagulation analysis in acute toxicity study
Format: in vivo, Sprague Dawley rats
Settings: day 15, mean ± SD
Experimental: Forty SD rats (20 males and 20 females) were randomly divided into 4 groups (Figure 1). All rats were given F3 once on the day of the experiment.
Twelve SD rats (6 males, 6 females) were given a daily subcutaneous injection of F3 at a dose of 10.0 mg/kg for consecutive 14 days. The first day of administration was recorded as day 1.
For 14 days, the body weight was measured before F3 administration on the first day of the experiment and once a week thereafter, with additional measurements on the day before and on the day of the planned autopsy. Food intake was recorded once a week. The rats were anesthetized by inhalation of 70% CO2/30% O2 before dissection, and blood samples were taken for hematology and biochemical analysis. The collected tissue was weighed and preserved for pathological examination.
Blood smears were used to investigate the morphology of basophils (ABBASO), eosinophils (ABEOS), neutrophils (ABNEUT), monocytes (ABMONO), and lymphocytes (ABLYMP) in the peripheral blood. When white blood cell classification and reticulocyte count cannot be calculated directly by ADVIA 2120i, they were manually counted and calculated following the procedure published previously. The number of platelets was determined manually when they could not be counted mechanically because of coagulation. Wright-Giemsa staining was used to prepare blood smears for cell morphology.
Liver and renal functions were measured with special attention to alanine aminotransferase (ALT), aspartate aminotransferase (AST), alkaline phosphatase (ALP), serum creatinine, total bilirubin, and urea levels. In addition, the levels of glucose, calcium, total protein, and albumin in serum samples were measured. The blood biochemical test, hematology test, and coagulation function test were detected by Hitachi 7180 automatic biochemical analyzer, Siemens ADVIA 2120i hematology analyzer, and Stargo Emo Express Hemagglutination analyzer, respectively.

[1] = female SD rats, s.c. 10.0 mg/kg daily x14 d, n=6
[2] = female SD rats, single s.c. 1.0 mg/kg, n=5
[3] = female SD rats, single s.c. 10.0 mg/kg, n=5
[4] = female SD rats, single s.c. 100.0 mg/kg, n=5
[5] = male SD rats, s.c. 10.0 mg/kg daily x14 d, n=6
[6] = male SD rats, single s.c. 1.0 mg/kg, n=5
[7] = male SD rats, single s.c. 10.0 mg/kg, n=5
[8] = male SD rats, single s.c. 100.0 mg/kg, n=5

CC[C@H](C)[C@H](NC(=O)[C@H](CO)NC(=O)CNC(=O)[C@H](CC(C)C)NC(=O)[C@@H](NC(=O)CNC(=O)[C@H](Cc1ccccc1)NC(=O)[C@H](CC(C)C)NC(=O)CN)C(C)C)C(=O)N[C@@H](C)C(=O)N[C@@H](CCCCN)C(=O)N[C@@H](Cc1c[nH]cn1)C(=O)N[C@H](C(=O)N[C@@H](CC(C)C)C(=O)N1CCC[C@H]1C(=O)N[C@@H](Cc1c[nH]cn1)C(=O)N[C@H](C(=O)N[C@H](C(=O)N1CCC[C@H]1C(=O)N[C@H](C(=O)N[C@H](C(=O)N[C@@H](C)C(=O)N[C@@H](CCC(=O)O)C(=O)N[C@@H](CCCCN)C(=O)N[C@@H](CC(C)C)C(N)=O)[C@@H](C)CC)C(C)C)C(C)C)C(C)C)C(C)C [F3, Caerin 1.9] (H-GLFGVLGSIAKHVLPHVVPVIAEKL-NH2)
ABBASO (basophils) [1]: 0.01 ± 0 10^9/L
ABEOS (eosinophils) [1]: 0.16 ± 0.07 10^9/L
ABLYMP (lymphocytes) [1]: 7.64 ± 1.61 10^9/L
ABMONO (monocytes) [1]: 0.23 ± 0.08 10^9/L
ABNEUT (neutrophils) [1]: 2.53 ± 0.45 10^9/L
ABRETIC [1]: 273.87 ± 31.75 10^9/L
APTT [1]: 14.9 ± 0.28 s
HCT [1]: 38.2 ± 1.34%
HGB [1]: 11.62 ± 0.50 g/dL
MCH [1]: 19.25 ± 0.69 pg
MCHC [1]: 30.4 ± 0.46 g/dL
MCV [1]: 63.38 ± 2.38 fL
MPV [1]: 8.58 ± 0.42 fL
PLT [1]: 1357.67 ± 169.65 10^9/L
PT [1]: 20.45 ± 1.16 s
RBC [1]: 6.04 ± 0.37 10^12/L
WBC [1]: 10.67 ± 1.900 10^9/L
ABBASO (basophils) [2]: 0.006 ± 0.005 10^9/L
ABEOS (eosinophils) [2]: 0.072 ± 0.034 10^9/L
ABLYMP (lymphocytes) [2]: 5.956 ± 2.336 10^9/L
ABMONO (monocytes) [2]: 0.228 ± 0.234 10^9/L
ABNEUT (neutrophils) [2]: 1.71 ± 1.516 10^9/L
ABRETIC [2]: 226.5 ± 33.41 10^9/L
APTT [2]: 16.94 ± 1.15 s
HCT [2]: 45.34 ± 3.13%
HGB [2]: 14.44 ± 1.06 g/dL
MCH [2]: 19.06 ± 0.27 pg
MCHC [2]: 31.82 ± 0.47 g/dL
MCV [2]: 59.86 ± 0.56 fL
MPV [2]: 9.02 ± 0.30 fL
PLT [2]: 1081.6 ± 83.2 10^9/L
PT [2]: 20.06 ± 0.75 s
RBC [2]: 7.584 ± 0.568 10^12/L
WBC [2]: 8.022 ± 3.840 10^9/L
ABBASO (basophils) [3]: 0.01 ± 0.007 10^9/L
ABEOS (eosinophils) [3]: 0.072 ± 0.032 10^9/L
ABLYMP (lymphocytes) [3]: 6.526 ± 1.92 10^9/L
ABMONO (monocytes) [3]: 0.136 ± 0.034 10^9/L
ABNEUT (neutrophils) [3]: 1.128 ± 0.308 10^9/L
ABRETIC [3]: 192.02 ± 21.07 10^9/L
APTT [3]: 18.24 ± 1.36 s
HCT [3]: 46.98 ± 1.22%
HGB [3]: 14.9 ± 0.29 g/dL
MCH [3]: 18.78 ± 0.75 pg
MCHC [3]: 31.76 ± 0.46 g/dL
MCV [3]: 59.1 ± 1.71 fL
MPV [3]: 9.28 ± 0.20 fL
PLT [3]: 1004.4 ± 93.7 10^9/L
PT [3]: 19.44 ± 0.70 s
RBC [3]: 7.954 ± 0.424 10^12/L
WBC [3]: 7.922 ± 1.865 10^9/L
ABBASO (basophils) [4]: 0.008 ± 0.004 10^9/L
ABEOS (eosinophils) [4]: 0.06 ± 0.031 10^9/L
ABLYMP (lymphocytes) [4]: 5.886 ± 1.807 10^9/L
ABMONO (monocytes) [4]: 0.142 ± 0.094 10^9/L
ABNEUT (neutrophils) [4]: 1.148 ± 0.434 10^9/L
ABRETIC [4]: 215.84 ± 21.41 10^9/L
APTT [4]: 17.02 ± 1.47 s
HCT [4]: 47.16 ± 1.49%
HGB [4]: 14.96 ± 0.47 g/dL
MCH [4]: 18.64 ± 1 pg
MCV [4]: 58.8 ± 2.76 fL
MPV [4]: 9 ± 0.19 fL
PLT [4]: 987 ± 86.1 10^9/L
PT [4]: 19.72 ± 0.50 s
RBC [4]: 8.042 ± 0.561 10^12/L
WBC [4]: 7.28 ± 2.163 10^9/L
ABBASO (basophils) [5]: 0.01 ± 0.01 10^9/L
ABEOS (eosinophils) [5]: 0.17 ± 0.06 10^9/L
ABLYMP (lymphocytes) [5]: 10.1 ± 2.26 10^9/L
ABMONO (monocytes) [5]: 0.34 ± 0.09 10^9/L
ABNEUT (neutrophils) [5]: 2.43 ± 1.39 10^9/L
ABRETIC [5]: 338.6 ± 20.2 10^9/L
APTT [5]: 16.2 ± 1.82 s
HCT [5]: 42.18 ± 0.92%
HGB [5]: 12.68 ± 0.34 g/dL
MCH [5]: 18.28 ± 0.56 pg
MCHC [5]: 30.08 ± 0.52 g/dL
MCV [5]: 60.78 ± 1.44 fL
MPV [5]: 9.05 ± 0.36 fL
PLT [5]: 1421.5 ± 225.3 10^9/L
PT [5]: 20.87 ± 1.2 s
RBC [5]: 6.94 ± 0.18 10^12/L
WBC [5]: 13.19 ± 3.49 10^9/L
ABBASO (basophils) [6]: 0.005 ± 0.006 10^9/L
ABEOS (eosinophils) [6]: 0.088 ± 0.013 10^9/L
ABLYMP (lymphocytes) [6]: 7.695 ± 0.12 10^9/L
ABMONO (monocytes) [6]: 0.283 ± 0.124 10^9/L
ABNEUT (neutrophils) [6]: 1.185 ± 0.375 10^9/L
ABRETIC [6]: 250.78 ± 19.32 10^9/L
APTT [6]: 17.44 ± 0.85 s
HCT [6]: 48.4 ± 1.29%
HGB [6]: 15.1 ± 0.41 g/dL
MCH [6]: 18.63 ± 1.63 pg
MCHC [6]: 31.23 ± 0.69 g/dL
MCV [6]: 59.58 ± 4.36 fL
MPV [6]: 9.35 ± 0.33 fL
PLT [6]: 862.8 ± 95.1 10^9/L
PT [6]: 19.76 ± 0.92 s
RBC [6]: 8.163 ± 0.679 10^12/L
WBC [6]: 9.315 ± 0.344 10^9/L
ABBASO (basophils) [7]: 0.012 ± 0.008 10^9/L
ABEOS (eosinophils) [7]: 0.086 ± 0.059 10^9/L
ABLYMP (lymphocytes) [7]: 10.178 ± 2.676 10^9/L
ABMONO (monocytes) [7]: 0.262 ± 0.043 10^9/L
ABNEUT (neutrophils) [7]: 1.498 ± 0.573 10^9/L
ABRETIC [7]: 252.72 ± 25.77 10^9/L
APTT [7]: 17.86 ± 1.84 s
HCT [7]: 47.5 ± 1.89%
HGB [7]: 14.72 ± 0.59 g/dL
MCH [7]: 18.6 ± 0.49 pg
MCHC [7]: 30.98 ± 0.24 g/dL
MCV [7]: 60.06 ± 2.02 fL
PLT [7]: 878 ± 118.5 10^9/L
PT [7]: 19.88 ± 0.94 s
RBC [7]: 7.916 ± 0.383 10^12/L
WBC [7]: 12.12 ± 2.998 10^9/L
ABBASO (basophils) [8]: 0.01 ± 0.01 10^9/L
ABEOS (eosinophils) [8]: 0.11 ± 0.062 10^9/L
ABLYMP (lymphocytes) [8]: 8.444 ± 1.168 10^9/L
ABMONO (monocytes) [8]: 0.27 ± 0.06 10^9/L
ABNEUT (neutrophils) [8]: 1.742 ± 0.58 10^9/L
ABRETIC [8]: 270.82 ± 25.29 10^9/L
APTT [8]: 17.34 ± 1.96 s
HCT [8]: 47.62 ± 1.59%
HGB [8]: 14.6 ± 0.55 g/dL
MCH [8]: 18.86 ± 0.15 pg
MCV [8]: 61.52 ± 0.65 fL
MPV [8]: 9.26 ± 0.24 fL
PLT [8]: 985.4 ± 65 10^9/L
PT [8]: 20.14 ± 0.95 s
RBC [8]: 7.742 ± 0.232 10^12/L
WBC [8]: 10.654 ± 1.291 10^9/L
